TGI data for 12 compounds are collected here from PubChem BioAssay (NCI).

Assay in all cases: DTP human tumour cell line panel, 48 h
The subject of experiment [1] is 786-0 renal.
The subject of experiment [2] is CAKI-1 renal.
Experiment [3] relates to HOP-62 NSCLC.
The test system of experiment [4] is HS 578T breast.
Experiment [5] relates to KM12 colon.
Experiment [6] concerns OVCAR-5 ovarian.
Experiment [7] has as its system RPMI-8226 leukemia.
Experiment [8] relates to SK-MEL-2 melanoma.
In experiment [9] the test system is SNB-19 CNS.
Experiment [10] concerns SNB-75 CNS.

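48-hour exposure; five concentrations; linearly interpolated endpoints. TGI denotes the concentration required for complete inhibition of growth.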

As to `CCCCC1c2c([nH]c3ccccc23)C2C(=O)N(c3ccc(OC)cc3)C(=O)C2C1CCC` (stereo not given), the total growth inhibition concentration (TGI) – broadly, the concentration giving total growth inhibition – in experiment [1] was > 10 µM; in experiment [2] it was 6.25 µM; in [3], > 10 µM; in experiment [4], 4.81 µM; in [5], 5.65 µM; in [6], > 10 µM. The total growth inhibition concentration (TGI) is 8.99 µM in experiment [7], > 10 µM in experiment [8], > 10 µM in experiment [9] and 6.5 µM in experiment [10].

On to `CCCNC(=O)CCC(C)[C@H]1CCC2C3C(C[C@H](OC(C)=O)[C@@]21C)[C@@]1(C)CCC2(C[C@H]1C[C@H]3OC(C)=O)OOC1(CCC(C)CC1)OO2` (stereo not given in full), for which the total growth inhibition concentration (TGI) in [1] is 33.4 µM; in [2], 5.14 µM; in experiment [3] it was 3.47 µM; in [4] it was > 100 µM; in experiment [5] it was 20.2 µM; in experiment [6], 87.4 µM. Also, the TGI in experiment [7] was 19.4 µM; in experiment [8] it was 52.9 µM; in experiment [9], > 100 µM; in experiment [10], 53.5 µM.

Take `COc1cc(C2CC(C)(Nc3ccccc3)Oc3cc4c(cc32)OCO4)cc(OC)c1OC` (stereo not given): the concentration for total growth inhibition (TGI) in experiment [1] was > 78.4 µM; in [2] it was > 71.8 µM; in experiment [3], > 55.1 µM; in experiment [4], > 100 µM; in [5], > 37.5 µM; in [6], > 34.3 µM. In addition, the TGI is 50.1 µM in experiment [7], > 29.4 µM in [8], > 100 µM in experiment [9] and > 100 µM in experiment [10].

Turning to `COc1cc(C2SCC(=O)N2c2ccc(NC(=O)c3ccc(N4C(=O)CSC4c4cc(OC)c(OC)c(OC)c4)cc3)cc2)cc(OC)c1OC` (stereo not given), the concentration for total growth inhibition (TGI) in [1], in experiment [2], in experiment [3], in experiment [4], in [5] and in experiment [6] was > 100 µM each time. Besides, the TGI in experiment [7], in [8], in experiment [9] and in experiment [10] was > 100 µM each time.

With `CCOc1cc(C2CC(c3ccc(NS(=O)(=O)c4cc([N+](=O)[O-])ccc4C)cc3)=NN2C(=O)c2ccccc2)ccc1O` (stereo not given), the TGI in experiment [1] is 46.7 µM; in experiment [2], > 100 µM; in experiment [3] it was 47.2 µM; in experiment [4], > 100 µM; in experiment [5], > 100 µM; in [6], > 100 µM. In addition, the total growth inhibition concentration (TGI) was > 100 µM in [7], 30.9 µM in [8], > 100 µM in experiment [9] and 36.6 µM in experiment [10].

`COc1ccc(C2(CC(C)O)SCCCS2)cc1` (stereo not given): the total growth inhibition concentration (TGI) in experiment [1], in experiment [2], in [3], in [4], in [5] and in experiment [6] was > 100 µM each time. Also, the TGI in experiment [7], in [8], in experiment [9] and in [10] was > 100 µM each time.

Regarding `Nc1c(-c2cccc3ccccc23)c2ccc([N+](=O)[O-])cc2c(=O)n1-c1nc2ccccc2s1`, the TGI is > 36.2 µM in [1]; > 31.6 µM in [2]; 27.2 µM in experiment [3]; 20.9 µM in experiment [4]; 24.4 µM in experiment [5]; > 41.2 µM in [6]. Also, the concentration for total growth inhibition (TGI) in experiment [7] is > 49.6 µM; in experiment [8] it was 19.2 µM; in experiment [9] it was > 49.4 µM; in experiment [10] it was 9.65 µM.

For the compound `COc1ccc2cc3c4cc5c(cc4cc[n+]3cc2c1OC)OCO5`, the TGI in experiment [1] is > 100 µM; in experiment [2], > 100 µM; in experiment [3], 64.3 µM; in experiment [4], 31.3 µM; in experiment [5], 12.2 µM; in experiment [6] it was > 100 µM. For the same compound, the concentration for total growth inhibition (TGI) in experiment [7] was 35.1 µM; in experiment [8], > 57.8 µM; in [9], 39.6 µM; in experiment [10], 67 µM.

`CC(=O)N/N=C1\NC(=O)C[C@H]2[C@@H]3CC=C4C[C@@H](OC(C)=O)CC[C@]4(C)[C@H]3CC[C@]12C`: the total growth inhibition concentration (TGI) in experiment [1] is 43.1 µM; in [2], > 100 µM; in experiment [3], 32.5 µM; in experiment [4], 88.6 µM; in experiment [5], > 100 µM; in experiment [6], > 100 µM. Also, the TGI was > 100 µM in experiment [7], > 100 µM in [8], 39.9 µM in experiment [9] and 46.9 µM in experiment [10].

As to `CN(C)Cc1cc(C(=O)/C=C/c2ccc(O)cc2)cc(CN(C)C)c1O`, the TGI in experiment [1], in [2], in experiment [3], in experiment [4], in [5] and in experiment [6] was > 100 µM each time. For the same compound, the TGI in experiment [7] is 49.8 µM; in experiment [8], > 100 µM; in [9] it was > 100 µM; in experiment [10], 86.3 µM.

For the compound `C/C(CC1C2CCCC1C2)=N\NC(N)=O` (stereo not given), the TGI in experiment [1], in experiment [2], in experiment [3], in experiment [4], in experiment [5] and in experiment [6] was > 100 µM throughout. The TGI in [7], in experiment [8], in experiment [9] and in [10] was > 100 µM in each case.

For the compound `O=[N+]([O-])/C(C(Cl)=C(Cl)Cl)=C(\Nc1cccc2cccnc12)SCc1ccccc1`, the TGI was 47.3 µM in experiment [1]; 43.3 µM in experiment [2]; 33.6 µM in experiment [3]; 19.3 µM in [4]; 50.4 µM in [5]; 78.9 µM in experiment [6]. The TGI was > 100 µM in [7], 41 µM in experiment [8], 42 µM in experiment [9] and 40.9 µM in experiment [10].
